Assay results from the supplement of paper PMC10307832.

Columns and labels:
Experiment in all cases: relative viability (nuclei count vs DMSO), 5 days (fraction); higher = more cells survive
ALW-II-49-7 + AZD7762 = compound: Cc1ccc(C(=O)Nc2cccc(C(F)(F)F)c2)cc1Nc1cncc(C(N)=O)c1 [ALW-II-49-7] + NC(=O)Nc1cc(-c2cccc(F)c2)sc1C(=O)N[C@H]1CCCNC1 [AZD7762] (partner 0.2 µM)
Method in brief: (§1)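 Nuclei were stained with Hoechst during a one-step fixation (final 0.05% Triton X-100, 1% formaldehyde, 1 ug/ml Hoechst) carried out 5 days after dosing, then counted on 4× images. The cells, lung cancer lines in 1536-well plates, had been dosed by pin tool the day after seeding with one drug alone or a fixed anchor-drug dose plus five library-drug doses (not always all listed) in √10 steps. Relative viability is the nuclei count in treated wells divided by that in vehicle wells, and each value is the median of duplicate plates.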

XMD13-2 + Alpelisib = compound: C1CC1C(=O)NC2=NNC3=C2C=CC(=C3)C4=CC(=CC=C4)C(=O)NC5CC5 [XMD13-2] + Cc1nc(NC(=O)N2CCC[C@H]2C(N)=O)sc1-c1ccnc(C(C)(C)C(F)(F)F)c1 [Alpelisib] (partner 2 µM)
Method in brief: as §1

ALW-II-49-7 + Vorinostat = compound: Cc1ccc(C(=O)Nc2cccc(C(F)(F)F)c2)cc1Nc1cncc(C(N)=O)c1 [ALW-II-49-7] + O=C(CCCCCCC(=O)Nc1ccccc1)NO [Vorinostat] (partner 1 µM)
Method in brief: as §1

XMD13-2 + Navitoclax = compound: C1CC1C(=O)NC2=NNC3=C2C=CC(=C3)C4=CC(=CC=C4)C(=O)NC5CC5 [XMD13-2] + CC1(C)CCC(c2ccc(Cl)cc2)=C(CN2CCN(c3ccc(C(=O)NS(=O)(=O)c4ccc(N[C@H](CCN5CCOCC5)CSc5ccccc5)c(S(=O)(=O)C(F)(F)F)c4)cc3)CC2)C1 [Navitoclax] (partner 0.5 µM)
Method in brief: as §1

Cell Line	relative viability (ALW-II-49-7 + AZD7762; first compound 0.08 µM)	relative viability (ALW-II-49-7 + AZD7762; first compound 0.253 µM)	relative viability (ALW-II-49-7 + AZD7762; first compound 0.8 µM)	relative viability (ALW-II-49-7 + AZD7762; first compound 8 µM)	relative viability (XMD13-2 + Alpelisib; first compound 0.05 µM)	relative viability (XMD13-2 + Alpelisib; first compound 0.1581 µM)	relative viability (XMD13-2 + Alpelisib; first compound 0.5 µM)	relative viability (XMD13-2 + Alpelisib; first compound 1.581 µM)	relative viability (XMD13-2 + Alpelisib; first compound 5 µM)	relative viability (ALW-II-49-7 + Vorinostat; first compound 0.08 µM)	relative viability (ALW-II-49-7 + Vorinostat; first compound 0.253 µM)	relative viability (ALW-II-49-7 + Vorinostat; first compound 0.8 µM)	relative viability (ALW-II-49-7 + Vorinostat; first compound 8 µM)	relative viability (XMD13-2 + Navitoclax; first compound 0.05 µM)	relative viability (XMD13-2 + Navitoclax; first compound 0.1581 µM)	relative viability (XMD13-2 + Navitoclax; first compound 0.5 µM)	relative viability (XMD13-2 + Navitoclax; first compound 1.581 µM)	relative viability (XMD13-2 + Navitoclax; first compound 5 µM)	relative viability (ALW-II-49-7 + AZD7762; first compound 2.53 µM)	relative viability (ALW-II-49-7 + Vorinostat; first compound 2.53 µM)
LK-2	0.447	0.437	0.427	0.332	1.33	0.998	0.98	1.04	1.02	0.327	0.315	0.225	0.247	1.19	0.843	0.905	0.957	0.738		
HCC-827	0.208	0.241	0.187	0.19	1.01	0.917	1.01	0.947	0.528	0.9	0.803	0.787	0.883	0.962	1.02	1	0.978	0.898	0.183	0.813
NCI-H1993	0.981	0.674	0.722	0.622	0.666	0.663	0.694	0.763	0.642	0.843	0.72	0.837	0.796	0.911	0.834	0.884	0.845	0.673	0.812	0.828
NCI-H647	0.348	0.402	0.419	0.29	1.31	1.22	1.14	1.05	1.22	0.539	0.642	0.599	0.349	1.21	1.08	1.23	1.15	0.735		0.321
NCI-H460	0.567	0.863	0.663	0.456	0.653	0.586	0.498	0.468	0.492	0.763	0.857	0.69	0.498	1.34	1.23	1.28	1.02	1.2	0.665	0.497
EMC-BAC-2	1.09	1.21	0.916	0.896	0.844	0.748	0.752	0.703	0.57	0.462	0.419	0.301	0.281	1.29	1.22	1.21	1.18	1.27	1.11	0.409
NCI-H23	0.163	0.263	0.147	0.224	0.731	0.676	0.752	0.669	0.806	0.634	0.692	0.339	0.46	1.02	0.767	0.822	0.78	0.82	0.227	0.575
NCI-H1793	0.412	0.436	0.487	0.289	0.797	0.835	0.686	0.732	0.897	0.816	0.811	0.616	0.431	0.48	0.394	0.485	0.426	0.509	0.417	0.798
A-427	0.714	0.814	0.634	0.482	1.19	1.05	1.02	0.949	0.965	0.936	0.902	0.854	0.826	1.01	0.961	1.09	0.87	0.989	0.759	0.838
NCI-H322M	0.557	0.584	0.484	0.481	0.833	0.716	0.71	0.793	0.872	0.789	0.93	0.861	0.773	1.19	1.19	1.44	1.15	1.14	0.698	0.93
NCI-H2085	0.987	1.06	0.988	0.834	0.965	0.946	1.04	0.928	0.98	0.787	0.899	0.718	0.702	1.25	1.14	1.16	1.18	1.1	1.06	0.817
NCI-H2087	1.52	1.46	1.18	1.11	1.14	1.08	1.13	1.05	1.03	0.687	0.597	0.662	0.38	1.01	1.13	1.02	0.968	0.959	1.14	0.508
HCC-366	0.264	0.259	0.24	0.203	0.61	0.31	0.334	0.446	0.443	0.49	0.363	0.258	0.21	1.12	1.07	1.13	1.06	1.19	0.245	0.343
NCI-H2126	0.981	1.05	0.913	0.984	0.825	0.754	0.754	0.767	0.795	0.8	0.877	0.778	0.707	0.909	0.867	0.831	0.813	0.845	1	0.71
HCC-78	0.614	0.693	0.684	0.713	0.392	0.338	0.327	0.304	0.352	0.428	0.358	0.408	0.485	0.851	0.641	0.817	0.582	0.671	0.611	0.342
LCLC-97TM1	0.228	0.418	0.328	0.179	0.214	0.262	0.225	0.206	0.146	0.96	0.683	0.642	0.49	0.475	0.456	0.278	0.409	0.227	0.156	0.685
NCI-H838	0.921	1.04	0.889	0.886	1.14	1.04	1.01	1	1.06	0.778	0.748	0.693	0.769	1.26	1.16	1.13	1.22	1.18	0.702	0.759
NCI-H2347	1.02	0.727	0.606	0.638	1.04	1.07	1.08	0.92	1.05	0.519	0.5	0.653	0.559	0.726	0.827	0.919	0.786	0.981	0.676	0.49
NCI-H441	1.18	1.24	1.07	1.1	0.675	1.15	0.649	0.801	0.547	0.669	0.788	0.901	0.538	0.93	0.685	0.715	0.615	0.762	0.817	0.549
NCI-H1944	0.801	0.614	0.359	0.498	1.02	0.85	0.889	0.939	0.778	0.659	0.613	0.497	0.377	1.08	1.05	1.08	1.11	1.17	0.458	0.478
NCI-H2405	0.746	0.808	0.553	0.485	0.935	0.875	0.807	0.81	0.863	1.08	1.14	0.968	0.789	0.871	0.727	0.9	0.767	0.916	0.645	0.905
HCC-15	1.22	1.14	1	1.25	0.91	0.811	0.911	0.878	0.619	0.913	0.807	0.916	0.893	0.792	0.661	0.704	0.725	0.535	1.39	0.802
